pIC50: −log10 of the molar value.
Tests used:
Type in all cases: biochemical
[1] = target: T1, B-Raf V600E (Homo sapiens, UniProt P15056, V600E); assay: AlphaScreen kinase assay, B-Raf V600E; conditions: read-out: IC50, activity toward kinase B-Raf V600E
T1 construct: P4254. pFastBacBD-CDC37 BRAF D437-K722-X, V600E; His6 with pFastBac HT leader (TEV site) (N); made in house; host or cells: Sf9 (baculovirus; chaperone CDC37 co-expressed)

[2] = target: T2, FGFR1 (Homo sapiens, UniProt P11362, C488A/C584S); assay: AlphaScreen kinase assay, FGFR1; conditions: read-out: IC50, activity toward kinase FGFR
T2 construct: P1351.pET N6 BI-PTP FGFR A458-E765-X C488A, C584S; made in house; host or cells: E. coli (PTP1B co-expressed)
T2 sequence (P11362 458-765 C488A/C584S): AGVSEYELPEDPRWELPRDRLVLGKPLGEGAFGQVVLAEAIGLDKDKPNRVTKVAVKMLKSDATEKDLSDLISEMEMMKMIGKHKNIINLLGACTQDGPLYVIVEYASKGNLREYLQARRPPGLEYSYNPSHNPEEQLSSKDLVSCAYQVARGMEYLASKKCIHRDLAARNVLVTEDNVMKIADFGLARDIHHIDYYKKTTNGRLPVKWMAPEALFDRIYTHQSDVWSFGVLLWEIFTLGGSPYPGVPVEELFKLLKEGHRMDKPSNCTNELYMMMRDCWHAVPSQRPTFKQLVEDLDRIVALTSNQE

[3] = target: T3, Fms (Homo sapiens, UniProt P07333); assay: AlphaScreen kinase assay, Fms; conditions: read-out: IC50, activity toward kinase Fms
T3 construct: purchased Upstate Biotechnology
T3 sequence (P07333 20-972): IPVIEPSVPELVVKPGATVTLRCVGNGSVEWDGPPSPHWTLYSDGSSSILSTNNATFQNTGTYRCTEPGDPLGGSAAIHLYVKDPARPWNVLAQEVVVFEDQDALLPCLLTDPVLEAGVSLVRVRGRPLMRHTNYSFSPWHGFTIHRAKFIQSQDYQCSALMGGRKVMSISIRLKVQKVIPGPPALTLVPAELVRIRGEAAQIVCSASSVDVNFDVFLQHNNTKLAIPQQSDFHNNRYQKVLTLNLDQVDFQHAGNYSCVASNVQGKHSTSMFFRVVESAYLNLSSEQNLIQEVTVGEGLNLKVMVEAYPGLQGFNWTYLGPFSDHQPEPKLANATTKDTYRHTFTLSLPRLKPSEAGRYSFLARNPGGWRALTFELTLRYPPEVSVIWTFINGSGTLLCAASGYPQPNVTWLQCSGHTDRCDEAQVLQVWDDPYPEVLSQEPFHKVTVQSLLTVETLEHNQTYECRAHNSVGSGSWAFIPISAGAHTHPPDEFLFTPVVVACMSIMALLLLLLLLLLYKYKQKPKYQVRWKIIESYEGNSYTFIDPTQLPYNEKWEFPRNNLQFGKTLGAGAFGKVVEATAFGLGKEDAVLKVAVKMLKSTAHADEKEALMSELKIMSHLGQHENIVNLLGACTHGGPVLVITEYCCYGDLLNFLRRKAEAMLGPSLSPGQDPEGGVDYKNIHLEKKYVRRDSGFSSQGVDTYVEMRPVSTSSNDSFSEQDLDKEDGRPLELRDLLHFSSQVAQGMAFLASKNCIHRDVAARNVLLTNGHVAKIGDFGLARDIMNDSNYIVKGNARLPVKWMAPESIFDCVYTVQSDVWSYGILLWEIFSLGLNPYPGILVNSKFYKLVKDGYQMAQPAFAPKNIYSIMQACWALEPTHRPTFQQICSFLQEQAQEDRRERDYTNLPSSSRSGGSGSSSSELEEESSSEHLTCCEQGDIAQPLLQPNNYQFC

[4] = target: T4, Kdr (Homo sapiens, UniProt P35968); assay: Z'-Lyte FRET kinase assay (Invitrogen), Kdr; conditions: read-out: IC50, activity toward kinase Kdr
T4 construct: purchased Invitrogen (assay run by Invitrogen)
T4 sequence (P35968 20-1356): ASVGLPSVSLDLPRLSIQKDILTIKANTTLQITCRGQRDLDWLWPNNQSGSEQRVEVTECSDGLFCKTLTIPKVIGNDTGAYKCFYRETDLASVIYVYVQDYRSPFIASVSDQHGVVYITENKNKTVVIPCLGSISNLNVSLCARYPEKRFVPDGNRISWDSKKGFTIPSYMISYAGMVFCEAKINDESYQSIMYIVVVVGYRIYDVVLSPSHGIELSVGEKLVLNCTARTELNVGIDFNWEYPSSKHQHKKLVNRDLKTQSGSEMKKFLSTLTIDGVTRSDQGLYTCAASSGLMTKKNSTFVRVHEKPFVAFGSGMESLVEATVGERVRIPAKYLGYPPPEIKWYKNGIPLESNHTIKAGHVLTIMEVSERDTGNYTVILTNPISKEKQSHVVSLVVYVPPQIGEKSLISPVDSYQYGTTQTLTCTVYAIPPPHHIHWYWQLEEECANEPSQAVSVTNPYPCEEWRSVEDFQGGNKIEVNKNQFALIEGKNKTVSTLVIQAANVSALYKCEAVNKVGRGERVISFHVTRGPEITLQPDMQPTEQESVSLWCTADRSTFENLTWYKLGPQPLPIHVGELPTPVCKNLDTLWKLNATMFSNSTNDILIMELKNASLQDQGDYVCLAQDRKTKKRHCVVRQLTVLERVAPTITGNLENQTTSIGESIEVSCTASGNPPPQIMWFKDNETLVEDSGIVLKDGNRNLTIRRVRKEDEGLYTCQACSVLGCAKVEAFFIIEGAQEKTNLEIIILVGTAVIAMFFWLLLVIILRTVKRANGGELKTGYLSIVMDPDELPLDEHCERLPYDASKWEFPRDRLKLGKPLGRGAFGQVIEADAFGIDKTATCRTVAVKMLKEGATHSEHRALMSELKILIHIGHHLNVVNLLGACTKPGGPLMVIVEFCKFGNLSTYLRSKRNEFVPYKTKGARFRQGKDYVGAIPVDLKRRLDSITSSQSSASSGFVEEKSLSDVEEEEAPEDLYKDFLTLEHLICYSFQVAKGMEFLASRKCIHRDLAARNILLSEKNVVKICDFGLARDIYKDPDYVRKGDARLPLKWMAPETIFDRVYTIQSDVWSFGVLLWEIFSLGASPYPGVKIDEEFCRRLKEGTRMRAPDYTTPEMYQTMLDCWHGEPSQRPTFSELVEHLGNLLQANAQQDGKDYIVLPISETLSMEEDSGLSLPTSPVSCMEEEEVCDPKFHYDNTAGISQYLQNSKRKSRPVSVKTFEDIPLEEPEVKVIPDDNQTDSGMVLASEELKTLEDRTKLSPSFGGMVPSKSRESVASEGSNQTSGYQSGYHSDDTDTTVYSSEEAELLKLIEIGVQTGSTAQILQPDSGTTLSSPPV

[5] = target: T5, Kit (Homo sapiens, UniProt P10721); assay: AlphaScreen kinase assay, Kit; conditions: read-out: IC50, activity toward kinase Kit
T5 construct: P1332.N6 BI PTP KIT M552-K948-X COD; His6 (N); made in house; host or cells: E. coli (PTP1B co-expressed)

[6] = target: T6, Ret (Homo sapiens, UniProt P07949); assay: AlphaScreen kinase assay, Ret; conditions: read-out: IC50, activity toward kinase Ret
T6 construct: P1378.pET-SF BI-PTP RET H661-R1012 HIS; made in house
T6 sequence (P07949 with tags, fused parts or gaps): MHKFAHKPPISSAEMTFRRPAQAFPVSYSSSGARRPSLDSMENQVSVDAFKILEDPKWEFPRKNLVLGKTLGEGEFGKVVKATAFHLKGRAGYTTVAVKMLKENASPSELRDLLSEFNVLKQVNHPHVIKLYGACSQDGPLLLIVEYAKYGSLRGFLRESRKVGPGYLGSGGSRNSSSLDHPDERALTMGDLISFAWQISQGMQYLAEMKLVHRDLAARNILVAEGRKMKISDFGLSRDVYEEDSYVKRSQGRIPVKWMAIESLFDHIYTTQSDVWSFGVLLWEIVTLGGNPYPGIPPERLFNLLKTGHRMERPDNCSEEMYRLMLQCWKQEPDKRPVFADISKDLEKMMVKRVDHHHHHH

[7] = target: T7, Yes (Homo sapiens, UniProt P07947); assay: Z'-Lyte FRET kinase assay (Invitrogen), Yes; conditions: read-out: IC50, activity toward kinase Yes
T7 construct: purchased Invitrogen (Carlsbad, Calif.), screening service
T7 sequence (P07947 whole entry): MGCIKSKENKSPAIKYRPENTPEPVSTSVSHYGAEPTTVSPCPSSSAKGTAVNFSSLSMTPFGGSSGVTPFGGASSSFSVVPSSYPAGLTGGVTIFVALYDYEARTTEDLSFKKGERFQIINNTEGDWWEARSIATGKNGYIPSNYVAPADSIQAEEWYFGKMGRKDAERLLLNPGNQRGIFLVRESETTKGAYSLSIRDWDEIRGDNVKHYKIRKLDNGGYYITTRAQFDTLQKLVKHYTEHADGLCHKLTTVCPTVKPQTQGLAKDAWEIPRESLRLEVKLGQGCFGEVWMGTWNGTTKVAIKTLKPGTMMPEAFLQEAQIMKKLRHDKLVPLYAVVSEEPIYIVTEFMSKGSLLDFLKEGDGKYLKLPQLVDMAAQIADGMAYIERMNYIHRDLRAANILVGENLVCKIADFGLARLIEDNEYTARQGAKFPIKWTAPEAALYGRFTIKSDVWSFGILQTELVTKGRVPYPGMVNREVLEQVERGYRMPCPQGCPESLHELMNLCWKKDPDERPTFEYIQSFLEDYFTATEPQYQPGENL
Excerpt: The effect of potential modulators of kinase activity can be measured in a variety of different assays known in the art. For example, direct radiometric, indirect FRET or AlphaScreen assays may be used to assess the level of phosphorylation of a substrate in the presence of test compounds in order to determine the inhibitory affect of the compound on the kinase. Invitrogen (Carlsbad, Calif.) uses a FRET based assay for Btk, EGFR, EphB2, Flt3, lrak4, Kdr, MAP2K1, MAPKAPK2, PDGFRB, PKC theta, Stk6 and Yes. For these assays, compounds of the invention were screened by Invitrogen using Z′-Lyte™ kinase assay.
Briefly, the Invitrogen kinase assay involves use of a specific peptide substrate optimized for each kinase, containing a fluorophore at each end that make up the FRET pair. The peptide sensitivity to proteolytic cleavage depends on phosphorylation of the peptide. Non-phosphorylated peptide is cleaved by a protease while peptide phosphorylated by the kinase is not cleaved. Cleavage of the peptide disrupts the FRET between the donor (coumarin) and acceptor (fluorescein) fluorophores, resulting in an increase in the ratio of donor emission to acceptor emission. The emission ratio of coumarin to fluorescein is used to assess the reaction progress. The extent of phosphorylation is determined from the emission ratio, which is low when the kinase is active (phosphorylated peptide is not cleaved, FRET pair connected) or higher for inhibited kinase (non-phosphorylated peptide is cleaved, FRET pair separated). Thus, the assay involves a kinase reaction in the presence of varying concentrations of a given compound, a development reaction with site specific protease, and detection of the fluorescent emission ratio of coumarin and fluorscein. […] Reaction conditions for each kinase are determined to provide optimal reaction times, incubation temperature, kinase and ATP concentrations. Test samples are made up in 1× kinase buffer (50 mM HEPES pH 7.5, 50 mM MgCl2, 5 mM EGTA, 0.05% BRIJ-35) and compound at desired concentration prepared in DMSO such that the final DMSO is 1%. […] Typically, assay plates are prepared to 10 μl final volume per sample, adding 2.5 μl of compound at 4× the desired concentration in 4% DMSO (serial dilution of compound provides concentration curve), 5 μl of the desired kinase mixed with Z′-LYTE™ peptide substrate (2× in 2× kinase buffer, final peptide at 2 μM), and 2.5 μl of 4×ATP solution. All kinase except for MAP2K1 were at 10 μM ATP in the kinase reaction, while MAP2K1 was at 100 μM. Samples are mixed and the kinase reaction is incubated 1 hour at room temperature, after which 5 μl of development solution is added and mixed. After incubation for another 1 hour at room temperature, 5 μl of stop reagent is added to each sample and mixed. The fluorescence signals are measured to determine the emission ratio.

[8] = target: T8, B-Raf (Homo sapiens, UniProt P15056); assay: AlphaScreen kinase assay, B-Raf; conditions: read-out: IC50, activity toward kinase B-Raf
T8 construct: purchased Upstate Biotechnology
T8 sequence (P15056 whole entry): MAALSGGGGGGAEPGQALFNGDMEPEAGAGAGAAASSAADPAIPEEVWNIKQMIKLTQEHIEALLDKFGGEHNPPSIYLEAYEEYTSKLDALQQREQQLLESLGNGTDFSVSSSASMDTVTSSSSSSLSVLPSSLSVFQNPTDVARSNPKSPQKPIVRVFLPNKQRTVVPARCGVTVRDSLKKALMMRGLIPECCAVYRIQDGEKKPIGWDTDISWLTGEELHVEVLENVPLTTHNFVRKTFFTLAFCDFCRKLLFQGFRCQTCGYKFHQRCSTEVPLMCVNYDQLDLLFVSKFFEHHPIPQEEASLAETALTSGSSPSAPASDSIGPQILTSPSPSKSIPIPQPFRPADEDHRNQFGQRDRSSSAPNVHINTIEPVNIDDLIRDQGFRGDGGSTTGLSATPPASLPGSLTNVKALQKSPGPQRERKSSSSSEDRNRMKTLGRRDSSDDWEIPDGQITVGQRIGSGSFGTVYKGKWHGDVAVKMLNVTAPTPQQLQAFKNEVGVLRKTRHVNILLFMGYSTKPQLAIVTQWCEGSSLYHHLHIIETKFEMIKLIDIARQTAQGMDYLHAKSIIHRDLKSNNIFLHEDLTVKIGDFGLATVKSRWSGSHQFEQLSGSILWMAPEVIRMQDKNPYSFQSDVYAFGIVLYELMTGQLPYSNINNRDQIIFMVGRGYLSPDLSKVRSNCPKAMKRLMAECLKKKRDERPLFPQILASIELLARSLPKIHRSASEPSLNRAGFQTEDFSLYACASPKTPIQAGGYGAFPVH

[9] = target: T9, c-Raf-1 (Homo sapiens, UniProt P04049); assay: AlphaScreen kinase assay, c-Raf-1; conditions: read-out: IC50, activity toward kinase c-Raf-1
T9 construct: purchased Upstate Biotechnology

[10] = target: T10, Stk6 (Homo sapiens, UniProt O14965); assay: Z'-Lyte FRET kinase assay (Invitrogen), Stk6; conditions: read-out: IC50, activity toward kinase Stk6
T10 construct: purchased Invitrogen (Carlsbad, Calif.), screening service
T10 sequence (O14965 1-403): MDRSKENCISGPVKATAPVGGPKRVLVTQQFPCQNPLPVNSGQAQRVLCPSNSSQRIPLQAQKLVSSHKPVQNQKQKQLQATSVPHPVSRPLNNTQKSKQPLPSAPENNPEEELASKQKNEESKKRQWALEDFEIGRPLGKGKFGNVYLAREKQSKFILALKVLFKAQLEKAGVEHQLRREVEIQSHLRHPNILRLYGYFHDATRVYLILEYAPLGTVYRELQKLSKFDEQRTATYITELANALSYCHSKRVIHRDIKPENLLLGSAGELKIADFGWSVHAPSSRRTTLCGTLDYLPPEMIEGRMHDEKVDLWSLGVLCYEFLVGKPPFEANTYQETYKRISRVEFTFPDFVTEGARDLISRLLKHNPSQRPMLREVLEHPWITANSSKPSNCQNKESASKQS

[11] = target: T11, Fak (Homo sapiens, UniProt Q05397); assay: AlphaScreen kinase assay, Fak; conditions: read-out: IC50, activity toward kinase Fak
T11 construct: P1358.pFastBacHtb FAK S411-Q686-X; His6 with pFastBacHTb leader (TEV site) (N); made in house; host or cells: Sf9 (baculovirus)
T11 sequence (Q05397 411-686): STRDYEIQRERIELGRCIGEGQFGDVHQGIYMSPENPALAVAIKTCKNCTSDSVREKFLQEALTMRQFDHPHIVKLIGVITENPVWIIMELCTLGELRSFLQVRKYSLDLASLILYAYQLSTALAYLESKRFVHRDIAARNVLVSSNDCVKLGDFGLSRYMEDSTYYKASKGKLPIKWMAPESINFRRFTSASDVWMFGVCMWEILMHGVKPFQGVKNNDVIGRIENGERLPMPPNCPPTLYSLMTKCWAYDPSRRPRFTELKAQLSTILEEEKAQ

[12] = target: T12, Src (Homo sapiens, UniProt P12931); assay: AlphaScreen kinase assay, Src; conditions: read-out: IC50, activity toward kinase Src
T12 construct: P1144. pET-N6 BI-PTP SRC V86-L536-X; made in house
T12 sequence (P12931 with tags, fused parts or gaps): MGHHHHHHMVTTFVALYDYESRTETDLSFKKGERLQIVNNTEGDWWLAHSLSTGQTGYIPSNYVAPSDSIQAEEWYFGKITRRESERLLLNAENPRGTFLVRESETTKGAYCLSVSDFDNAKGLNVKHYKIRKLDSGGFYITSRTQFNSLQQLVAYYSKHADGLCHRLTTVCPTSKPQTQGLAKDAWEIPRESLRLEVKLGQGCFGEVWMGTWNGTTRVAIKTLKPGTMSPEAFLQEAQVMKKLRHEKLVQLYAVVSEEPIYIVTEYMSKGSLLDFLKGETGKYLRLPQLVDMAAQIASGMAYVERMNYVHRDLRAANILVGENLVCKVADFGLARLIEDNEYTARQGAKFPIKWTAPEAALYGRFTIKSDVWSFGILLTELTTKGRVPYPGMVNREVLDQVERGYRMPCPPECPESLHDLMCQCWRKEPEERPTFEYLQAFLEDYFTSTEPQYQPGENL

[13] = target: T13, Pyk2 (Homo sapiens, UniProt Q14289); assay: AlphaScreen kinase assay, Pyk2; conditions: read-out: IC50, activity toward kinase Pyk2
T13 construct: purchased Upstate Biotechnology

[14] = target: T14, Flt1 (Homo sapiens, UniProt P17948); assay: AlphaScreen kinase assay, Flt1; conditions: read-out: IC50, activity toward kinase Flt1
T14 construct: P1826.pETN6 BI-PTP FLT1 M799-D1165-X WT; His6 (N); made in house; host or cells: E. coli (PTP1B co-expressed)
T14 sequence (P17948 with tags, fused parts or gaps): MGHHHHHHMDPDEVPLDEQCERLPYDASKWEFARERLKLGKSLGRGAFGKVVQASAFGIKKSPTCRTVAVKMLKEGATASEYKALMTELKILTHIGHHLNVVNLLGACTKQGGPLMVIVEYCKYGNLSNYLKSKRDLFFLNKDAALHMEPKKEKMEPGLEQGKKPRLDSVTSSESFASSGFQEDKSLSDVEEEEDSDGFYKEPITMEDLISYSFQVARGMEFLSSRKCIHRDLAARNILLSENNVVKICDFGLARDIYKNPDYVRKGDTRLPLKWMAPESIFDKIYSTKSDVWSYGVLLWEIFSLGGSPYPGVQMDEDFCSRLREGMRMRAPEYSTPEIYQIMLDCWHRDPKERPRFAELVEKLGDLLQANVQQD

[15] = target: T15, Jnk3 (Homo sapiens, UniProt P53779); assay: AlphaScreen kinase assay, Jnk3; conditions: read-out: IC50, activity toward kinase Jnk3
T15 construct: purchased Upstate Biotechnology

Measured: pIC50

T1 sequence (P15056 with tags, fused parts or gaps V600E): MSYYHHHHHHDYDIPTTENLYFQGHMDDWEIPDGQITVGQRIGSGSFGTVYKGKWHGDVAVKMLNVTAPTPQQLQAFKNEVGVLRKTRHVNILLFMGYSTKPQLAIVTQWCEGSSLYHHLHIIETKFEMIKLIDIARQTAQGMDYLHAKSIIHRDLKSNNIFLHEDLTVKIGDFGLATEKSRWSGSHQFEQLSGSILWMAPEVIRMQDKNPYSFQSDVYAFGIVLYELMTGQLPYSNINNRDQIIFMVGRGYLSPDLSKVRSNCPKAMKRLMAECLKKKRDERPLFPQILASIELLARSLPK

COc1ccc(F)c(C(=O)c2c[nH]c3nccc(Cl)c23)c1 [Compound P-0175]
≥ 5.00: [1] | [2] | [3] | [4] | [5] | [6] | [7]

O=C(c1cccc(O)c1)c1c[nH]c2ncc(-c3ccccc3)cc12 [Compound P-0230]
≥ 5.00: [4] | [7]

CS(=O)(=O)Nc1ccc(F)c(C(=O)c2c[nH]c3ncc(Br)cc23)c1F [Compound P-0162, N-[3-(5-Bromo-1H-pyrrolo[2,3-b]pyridine-3-carbonyl)-2,4-difluoro-phenyl]-methanesulfonamide]
≥ 5.00: [8] | [1] | [9] | [4] | [10] | [7]

c1csc(CNc2ccc(Cc3c[nH]c4ncccc34)cn2)c1 [Compound P-0129]
≥ 5.00: [1] | [2] | [3] | [4] | [10] | [7]

COc1cccc(C(O)c2c[nH]c3ncc(-c4cccs4)cc23)c1 (stereo not drawn) [Compound P-0161]
≥ 5.00: [4] | [7]

COc1ccc(-c2cnc3[nH]cc(C#Cc4ccccc4)c3c2)cc1OC [Compound P-0153]
≥ 5.00: [1] | [10] | [7]

C(=C\c1c[nH]c2ncccc12)/c1ccc(NCc2ccccc2)cc1 [Compound P-0283]
≥ 5.00: [10] | [7]

COc1cccc(-c2ccc3c(CNS(=O)(=O)c4ccc(C)cc4)c[nH]c3n2)c1 [Compound P-0209]
≥ 5.00: [11] | [12] | [7]

O=C(Nc1ccc(F)c(C(O)c2c[nH]c3ncc(-c4cccnc4)cc23)c1F)OCc1ccccc1 (stereo not drawn) [Compound P-0095, {2,4-Difluoro-3-[hydroxy-(5-pyridin-3-yl-1H-pyrrolo[2,3b]pyridin-3-yl)-methyl]-phenyl}-carbamic acid benzyl ester]
≥ 5.00: [8] | [1] | [13] | [6] | [7]

COC(=O)Nc1ccc(F)c(C(O)c2c[nH]c3ncc(-c4cccnc4)cc23)c1F (stereo not drawn) [Compound P-0065, {2,4-difluoro-3-[hydroxy-(5-pyridin-3-yl-1H-pyrrolo[2,3b]pyridin-3-yl)-methyl]-phenyl}-carbamic acid methyl ester]
≥ 5.00: [8] | [4] | [6] | [10] | [7]

O=C(c1ccc(NCc2cccs2)nc1)c1c[nH]c2ncccc12 [Compound P-0237]
≥ 5.00: [1] | [3] | [12] | [10] | [7]

O=C(c1ccc(NCc2ccccc2)nc1)c1c[nH]c2ncccc12 [Compound P-0483]
≥ 5.00: [1] | [2] | [14] | [3] | [15] | [12] | [7]

CS(=O)(=O)Nc1ccc(F)c(C(=O)c2c[nH]c3ncc(-c4cccc(S(C)(=O)=O)c4)cc23)c1F [Compound P-0210]
not listed: [4] | [10] | [13] | [14] | [15]
≥ 5.00: all other assays above

From patent US8415469B2, “Compounds and methods for kinase modulation, and indications therefor” (Plexxikon Inc., priority 2005, dated 2013)
